Results taken from US20100009920A1, “TTK AS TUMOR MARKER AND THERAPEUTIC TARGET FOR LUNG CANCER” (priority 2006, published 2010).
“Also recorded” adds a separate entry of the source. Like-named read-outs stand apart in the source and are kept apart here.

Experiments:
Type in all cases: cell-based, human
[1] = tested on: TTK; assay: TTK protein level in A549 cells after RNAi (western blot)
Procedure: (§1) Cells were lysed with RIPA buffer [50 mM Tris-HCl (pH 8.0), 150 mM NaCl, 1% NP-40, 0.5% deoxychorate-Na, 0.1% SDS] containing Protease Inhibitor Cocktail Set III (CALBIOCHEM) and phosphatase inhibitor (1 mM sodium fluoride, 1 mM sodium orthovanadate, 2 mM imidazole, 4 mM sodium tartrate). Cytoplasmic and nuclear extractions were isolated by NE-PER Nuclear and Cytoplasmic Extraction Reagents (PIERCE). Protein samples were separated by SDS-polyacrylamide gels and electroblotted onto Hybond-ECL nitrocellulose membranes (GE Healthcare Bio-sciences). […] Antigen-antibody complexes were detected using secondary antibodies conjugated to horseradish peroxidase (GE Healthcare Bio-sciences). […]

[2] = tested on: PLCγ1 and p44/42 MAPK; assay: Western blot of PLCγ and p44/42 MAPK in A549 cells after RNAi
Procedure: (§2) Cells were lysed with RIPA buffer [50 mM Tris-HCl (pH 8.0), 150 mM NaCl, 1% NP-40, 0.5% deoxychorate-Na, 0.1% SDS] containing Protease Inhibitor Cocktail Set III (CALBIOCHEM) and phosphatase inhibitor (1 mM sodium fluoride, 1 mM sodium orthovanadate, 2 mM imidazole, 4 mM sodium tartrate). Cytoplasmic and nuclear extractions were isolated by NE-PER Nuclear and Cytoplasmic Extraction Reagents (PIERCE). Protein samples were separated by SDS-polyacrylamide gels and electroblotted onto Hybond-ECL nitrocellulose membranes (GE Healthcare Bio-sciences). Blots were incubated with a mouse monoclonal anti-Mps1 (TTK) antibody (Upstate), rabbit polyclonal anti-phospho-EGFR antibodies (Tyr-845, Tyr-992, Tyr-1045, Tyr-1068, […], and Tyr-1173; Cell Signaling Technology, Inc.), a rabbit polyclonal anti-EGFR antibody (Cell Signaling Technology, Inc.), a rabbit polyclonal anti-phospho-PLCgamma1 (Tyr-771) antibody (Cell Signaling Technology, Inc.), a rabbit polyclonal anti-PLCgamma1 antibody (Cell Signaling Technology, Inc.), a rabbit polyclonal anti-phospho-p44/42 MAPK (Thr202/Tyr204) antibody (Cell Signaling Technology, Inc.), a rabbit polyclonal anti-p44/42 MAPK antibody (Cell Signaling Technology, Inc.), a mouse monoclonal anti-Flag antibody (SIGMA) or a mouse monoclonal anti-beta-actin antibody (SIGMA). Anti-phospho-EGFR (Ser-967) antibodies were raised against Ser-967-phosphorylated synthetic peptides and purified with the phosphopeptide column. Antigen-antibody complexes were detected using secondary antibodies conjugated to horseradish peroxidase (GE Healthcare Bio-sciences). Protein bands were visualized by ECL Western Blotting Detection Reagents (GE Healthcare Bio-sciences).
(§3) The oligo-siRNAs (Dharmacon, Inc., Lafayette, Colo.) ([…]) were transfected into appropriate lung-cancer cell lines using 30 micro-1 of Lipofectamine 2000 (Invitrogen, Carlsbad, Calif.) following the manufacturer's protocol. The ribonucleotide sequences corresponding to following sequences were used as the oligo-siRNA.

[3] = tested on: phospho-EGFR (Ser-967); assay: Phospho-EGFR (Ser-967) level in A549 cells after RNAi (immunofluorescence)
Procedure: as §1
Cultured cells were fixed with 4% paraformaldehyde solution for 15 min at 37° C., or 10% Trichloro acetic acid for 15 min on ice. […] Images were viewed and assessed using a confocal microscope at wavelengths of 488, 594 nm (TCS SP2 AOBS: Leica Microsystems). […]

[4] = tested on: phospho-EGFR (Tyr-992); assay: Phospho-EGFR (Tyr-992) level in A549 cells after RNAi (immunofluorescence, western blot); conditions: for phosphorylation level of EGFR Tyr-992, western blot: A549 cells; for phospho-EGFR (Tyr-992), immunofluorescence: serum-starved A549 cells
Procedure: as §2
Cultured cells were fixed with 4% paraformaldehyde solution for 15 min at 37° C., or 10% Trichloro acetic acid for 15 min on ice. Fixed cells were incubated in PBS(−) containing 0.1% Triton X-100 for 10 min and subsequently washed with PBS(−). Prior to the primary antibody reaction, fixed cells were covered with CAS-BLOCK (ZYMED Laboratories Inc.) for 10 min to block non-specific-antibody binding. Then the cells were incubated with a mouse monoclonal anti-Mps1 (TTK) antibody (Upstate) and a rabbit polyclonal anti-phospho-EGFR (Tyr-992) (Cell Signaling Technology, Inc.), or a rabbit polyclonal anti-phospho-p44/42 MAPK (Thr202/Tyr204) antibody (Cell Signaling Technology, Inc.), or a mouse monoclonal anti-Flag antibody (SIGMA). Antibodies were stained with an anti-mouse secondary antibody conjugated to Alexa Fluor 488 (Molecular Probes) and an anti-rabbit secondary antibody conjugated to Alexa Fluor 594 (Molecular Probes). […] Images were viewed and assessed using a confocal microscope at wavelengths of 488, 594 nm (TCS SP2 AOBS: Leica Microsystems). […]

[5] = tested on: A549 cells; assay: Microscopic observation of cell morphology (phase contrast images); conditions: non-treated cells as control
Procedure: as §3
The endogenous association between TTK and EGFR in lung cancer cells was also investigated by immunoprecipitaion experiment using extracts from A549 cells, and the interaction between these two proteins regardless the EGF-stimulation was detected (FIG. 4b). To further examine the relevance of TTK to EGFR signaling, TTK or EGFR function in A549 cells were suppressed and cell morphology was microscopically observed.

[6] = listed as RNAi (oligo) against TTK

CAAGATGTGTTAAAGTGTTTT (listed as DNA, chemistry not given here) [RNAi-TTK (oligo)]
TTK protein [1]: Reduction; also recorded: suppression | amount of PLCγ protein [2]: did not affect | amount of p44/42 MAPK protein [2]: did not affect | phospho-PLCγ (Tyr-771) [2]: decrease | phosphorylation of p44/42 MAPK (Thr202/Tyr204) [2]: decrease | phospho-PLCγ (Tyr-771) [2, 6]: reduced | phosphorylation of p44/42 MAPK (Thr202/Tyr204) [2, 6]: reduced | levels of phospho-EGFR Ser-967, immunofluorescence [3]: decreased significantly | levels of phospho-EGFR Ser-967, immunofluorescence [3, 6]: reduced | phosphorylation level of EGFR Tyr-992, western blot [4]: decreased | phosphorylation level of EGFR Tyr-992, western blot [4, 6]: reduced | phospho-EGFR (Tyr-992), immunofluorescence [4]: significantly decreased | phospho-EGFR (Tyr-992), immunofluorescence ([4]; listed as si-TTK): reduced | cell morphology [5]: became much larger with multiple nuclei
